Results published in PMC2680759, “Non-Invasive Molecular Imaging of Fibrosis Using a Collagen-Targeted Peptidomimetic of the Platelet Collagen Receptor Glycoprotein VI” (PLoS ONE, 2009).
Bridges are numbered along the chain shown (N, C = ends). Where no end group is shown, it is not given here.

How the values were obtained:
fibrinogen = biological target: T1, fibrinogen (Bos taurus, UniProt P02672+P02676+P12799); assay: Solid phase assay, fibrinogen; type: binding, bovine; conditions: biotin-peptide 50 µg/mL, microtitration plate, n = 3
T1 sequence (P02672 20-615): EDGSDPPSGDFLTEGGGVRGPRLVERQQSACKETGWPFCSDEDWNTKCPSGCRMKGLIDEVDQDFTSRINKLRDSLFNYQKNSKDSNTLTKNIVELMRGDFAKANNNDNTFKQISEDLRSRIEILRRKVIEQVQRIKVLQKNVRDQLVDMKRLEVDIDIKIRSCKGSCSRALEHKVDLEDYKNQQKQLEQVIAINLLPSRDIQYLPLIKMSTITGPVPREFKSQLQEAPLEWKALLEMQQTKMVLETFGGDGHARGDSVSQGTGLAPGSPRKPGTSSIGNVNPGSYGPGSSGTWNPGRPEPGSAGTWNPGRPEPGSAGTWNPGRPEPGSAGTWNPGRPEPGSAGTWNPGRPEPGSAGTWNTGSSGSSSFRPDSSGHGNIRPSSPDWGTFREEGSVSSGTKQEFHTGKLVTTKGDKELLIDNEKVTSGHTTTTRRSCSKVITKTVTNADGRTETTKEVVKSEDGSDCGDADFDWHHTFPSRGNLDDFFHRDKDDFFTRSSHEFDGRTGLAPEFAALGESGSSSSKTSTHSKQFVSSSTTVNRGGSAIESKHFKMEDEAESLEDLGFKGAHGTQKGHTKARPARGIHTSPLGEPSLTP
T1 sequence (P02676 1-468): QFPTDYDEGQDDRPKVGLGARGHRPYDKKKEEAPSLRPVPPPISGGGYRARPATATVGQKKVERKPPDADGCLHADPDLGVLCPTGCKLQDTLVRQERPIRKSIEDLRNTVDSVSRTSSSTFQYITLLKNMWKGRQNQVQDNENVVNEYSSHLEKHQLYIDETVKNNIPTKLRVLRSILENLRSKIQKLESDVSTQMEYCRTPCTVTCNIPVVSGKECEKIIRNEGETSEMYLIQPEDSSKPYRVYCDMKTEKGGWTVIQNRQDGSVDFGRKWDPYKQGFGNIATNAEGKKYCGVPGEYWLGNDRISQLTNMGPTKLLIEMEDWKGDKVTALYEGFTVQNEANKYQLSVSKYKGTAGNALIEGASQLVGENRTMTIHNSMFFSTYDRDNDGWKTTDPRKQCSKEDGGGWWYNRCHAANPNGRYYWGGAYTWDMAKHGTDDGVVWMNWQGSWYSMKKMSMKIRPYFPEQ
T1 sequence (P12799 25-444): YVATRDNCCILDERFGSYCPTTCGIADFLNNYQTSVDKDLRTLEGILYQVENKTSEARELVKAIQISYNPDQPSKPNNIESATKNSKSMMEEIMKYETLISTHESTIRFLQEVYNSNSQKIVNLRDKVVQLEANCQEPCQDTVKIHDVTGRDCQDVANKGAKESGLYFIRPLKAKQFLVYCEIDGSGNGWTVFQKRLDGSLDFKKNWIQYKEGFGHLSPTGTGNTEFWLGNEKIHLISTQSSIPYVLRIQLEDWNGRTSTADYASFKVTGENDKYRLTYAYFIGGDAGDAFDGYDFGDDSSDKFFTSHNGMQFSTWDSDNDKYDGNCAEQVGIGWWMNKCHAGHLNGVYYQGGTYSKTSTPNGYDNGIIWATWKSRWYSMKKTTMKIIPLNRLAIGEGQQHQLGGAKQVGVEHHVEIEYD
Method: (§1) Biotin-peptides (50 µg.mL^−1) were incubated on microtitration wells, coated with 1 µg of type-I collagen, convulxin, collagen related peptides, bovine fibrinogen, human fibronectin, rat vitronectin, murine laminin or bovine serum albumin. Bound peptides were detected using HRP-coupled extravidin and the HRP substrate O-phenyl-dianisidine.

platelet function = assay: Effect on platelet function; conditions: stated in discussion, no method given
9O12.2 IgG = assay: SPR, 9O12.2 IgG injected over immobilized B-collagelin; type: binding; conditions: SPR, peptide reduced by DTT on the sensorchip, IgG 8 µg/ml
Method: (§2) 9O12.2 IgG was injected over biotin-peptides coupled to an SA-sensorchip in a Biacore 2000 instrument. […] In some experiments, the peptide was reduced by DTT on the sensor chip before the IgG was injected. Competition experiments were performed by mixing the IgG with recombinant soluble GPVI (25 µg.mL^−1). Collagen binding to the peptide was analyzed by injecting type-I collagen (200 µg.mL^−1) onto the peptide-coated sensorchip. Conversely, biotin-peptides (125, 250, 500 and 1000 µg.mL^−1) were perfused over fibrillar collagen immobilized on a CM5-sensorchip.

[1] = system: collagen related peptide (CRP); assay: Solid phase assay, collagen related peptide; type: binding; conditions: biotin-peptide 50 µg/mL, microtitration plate, n = 3
Method: as §1

[2] = system: collagen rich lesions of fibrotic lungs; assay: Histochemical analysis of healthy and fibrotic lung sections; set-up: species or system mouse; conditions: paraffin embedded lung sections of bleomycin-treated mice, HRP-coupled streptavidin
Method: Figure 6 Imaging of lung fibrosis. A: Paraffin embedded sections of lungs from a bleomycin-treated mice were incubated with B-collagelin and detected using HRP-coupled streptavidin. Sections were counter-stained with hematoxylin. Contiguous serial sections were stained with picrosirius red. Representative images are shown. B: Whole body planar scintigraphy of a bleomycin-treated mouse (left) and a control mouse (right). Representative images acquired one hour after the injection of 99mTc-collagelin are shown. C: Corresponding lung autoradiography and histology (picrosirius staining) showing the colocalisation of 99mTc-collagelin with fibrosis. D: Lung autoradiogaphy and histology from a mice treated with the control 99mTc-Pc.

[3] = system: collagen in sections of rat aorta and tail tendon; assay: Histochemical analysis of rat aorta and tail tendon sections; conditions: frozen sections of rat aorta and tail tendon, biotin-peptide 200 µg/mL, HRP-coupled streptavidin
Method: Sections were counter-stained with hematoxylin-eosin (Merck). Collagen was stained using picrosirius red. Sections ([…]) of rat tail tendon were processed as above.

[4] = biological target: fibrillar type I collagen (Homo sapiens, UniProt P02452+P08123); assay: SPR, biotin-peptides perfused over collagen-coated sensorchip; type: binding; conditions: fibrillar type I collagen on CM5-sensorchip
Method: as §2

[5] = system: collagen fibers of the infarct scars; assay: Post mortem autoradiography of frozen myocardial sections; type: in vivo, rat; conditions: 99mTc-streptavidin-coupled peptides
Method: After sacrificing the animals, the heart was removed and frozen, then 20-micrometer thick myocardial sections were cut perpendicular to the short axis of the ventricles in a cryostat, and exposed in a radioimager for 16 h. According to calibration studies performed with activity standards of tissue-equivalent homogenates, 50 counts/mm^2 of ^99m Tc-labeled tracers corresponded to ∼210 kBq/mg in autoradiography. The myocardial sections used for autoradiography, and contiguous heart sections (5 µm) fixed in acetone (−20°C), were stained with hematoxylin-eosin, Masson's trichrome and picrosirius red to determine the location and extent of the fibrotic myocardial scarring.

Sequence of fibrillar type I collagen (P02452 162-1218 limits assumed): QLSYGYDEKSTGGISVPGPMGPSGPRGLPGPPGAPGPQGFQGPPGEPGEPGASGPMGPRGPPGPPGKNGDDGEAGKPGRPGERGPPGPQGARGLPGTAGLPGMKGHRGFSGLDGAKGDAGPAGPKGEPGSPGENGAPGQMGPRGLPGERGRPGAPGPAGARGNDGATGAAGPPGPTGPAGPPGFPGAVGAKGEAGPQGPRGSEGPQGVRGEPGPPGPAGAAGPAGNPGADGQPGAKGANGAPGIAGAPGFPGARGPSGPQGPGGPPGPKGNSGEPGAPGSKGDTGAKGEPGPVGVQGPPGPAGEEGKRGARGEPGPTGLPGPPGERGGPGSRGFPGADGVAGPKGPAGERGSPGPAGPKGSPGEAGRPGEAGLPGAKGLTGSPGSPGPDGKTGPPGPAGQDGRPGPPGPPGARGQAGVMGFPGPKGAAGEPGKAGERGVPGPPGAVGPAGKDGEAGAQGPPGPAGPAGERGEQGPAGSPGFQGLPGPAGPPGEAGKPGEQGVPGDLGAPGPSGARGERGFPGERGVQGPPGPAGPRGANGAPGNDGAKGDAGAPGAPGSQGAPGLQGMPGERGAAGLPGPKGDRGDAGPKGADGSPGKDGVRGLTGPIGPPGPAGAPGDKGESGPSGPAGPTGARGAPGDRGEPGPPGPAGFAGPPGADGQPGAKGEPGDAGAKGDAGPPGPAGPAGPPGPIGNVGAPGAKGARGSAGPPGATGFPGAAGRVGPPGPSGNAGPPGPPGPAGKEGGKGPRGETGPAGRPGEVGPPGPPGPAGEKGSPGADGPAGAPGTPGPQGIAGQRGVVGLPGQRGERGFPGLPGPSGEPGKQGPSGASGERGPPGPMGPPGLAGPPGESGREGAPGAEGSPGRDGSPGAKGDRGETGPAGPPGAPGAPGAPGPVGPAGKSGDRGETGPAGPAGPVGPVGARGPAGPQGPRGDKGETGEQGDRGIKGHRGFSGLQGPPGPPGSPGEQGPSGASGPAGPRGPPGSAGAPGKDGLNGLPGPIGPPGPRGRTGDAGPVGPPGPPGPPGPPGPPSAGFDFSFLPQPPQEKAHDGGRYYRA
Sequence of fibrillar type I collagen (P08123 80-1119 limits assumed): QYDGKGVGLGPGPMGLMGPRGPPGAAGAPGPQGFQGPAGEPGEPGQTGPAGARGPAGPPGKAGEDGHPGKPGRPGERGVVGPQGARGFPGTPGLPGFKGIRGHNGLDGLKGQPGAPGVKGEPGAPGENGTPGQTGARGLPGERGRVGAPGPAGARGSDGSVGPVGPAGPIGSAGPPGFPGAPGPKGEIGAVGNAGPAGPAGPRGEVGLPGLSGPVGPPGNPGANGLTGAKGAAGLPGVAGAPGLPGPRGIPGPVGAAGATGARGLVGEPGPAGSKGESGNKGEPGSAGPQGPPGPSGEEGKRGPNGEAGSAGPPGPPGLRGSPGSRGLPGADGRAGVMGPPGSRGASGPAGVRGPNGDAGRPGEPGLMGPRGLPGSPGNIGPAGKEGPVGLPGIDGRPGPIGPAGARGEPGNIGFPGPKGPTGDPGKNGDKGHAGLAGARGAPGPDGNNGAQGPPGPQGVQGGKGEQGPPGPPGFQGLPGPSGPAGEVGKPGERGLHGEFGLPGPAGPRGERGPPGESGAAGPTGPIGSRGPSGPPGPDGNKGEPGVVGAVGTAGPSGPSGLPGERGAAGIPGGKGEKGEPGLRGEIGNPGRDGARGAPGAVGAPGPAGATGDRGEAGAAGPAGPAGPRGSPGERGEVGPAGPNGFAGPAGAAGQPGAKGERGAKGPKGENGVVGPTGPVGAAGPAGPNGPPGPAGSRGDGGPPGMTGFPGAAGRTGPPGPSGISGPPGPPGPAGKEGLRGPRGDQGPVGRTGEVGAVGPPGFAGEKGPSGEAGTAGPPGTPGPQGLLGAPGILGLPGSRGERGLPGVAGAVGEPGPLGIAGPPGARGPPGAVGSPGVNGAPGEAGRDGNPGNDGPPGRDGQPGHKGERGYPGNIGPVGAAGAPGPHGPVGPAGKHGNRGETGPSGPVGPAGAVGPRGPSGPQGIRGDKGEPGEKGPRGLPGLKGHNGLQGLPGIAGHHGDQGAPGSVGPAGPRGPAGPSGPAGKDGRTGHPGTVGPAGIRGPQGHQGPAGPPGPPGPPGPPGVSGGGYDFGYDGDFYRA

| Binding to immobilized fibrinogen (fibrinogen) | Binding of 9O12.2 IgG to reduced collagelin (9O12.2 IgG) | Binding to immobilized CRP [1] | Binding to collagen-coated sensorchip [4] | Compound | Effect on platelet function (platelet function) | Histochemical staining of lung sections [2] | Histochemical staining of tissue collagen [3] | Autoradiographic labeling of the infarct scar ([5]; frozen myocardium sections 6-8 hours after injection) | Mean infarct-to-remote myocardium radioactivity ratio ([5]; rats with MI, mean±SEM, p<0.006) |
| --- | --- | --- | --- | --- | --- | --- | --- | --- | --- |
| either to be weak or not to occur at all | did not bind | bound | – | CSCC[C@@H]1NC(=O)[C@H](C(C)C)NC(=O)[C@H](CCCNC(=N)N)NC(=O)CNC(=O)[C@@H]2CCCN2C(=O)[C@@H](NC(=O)CNC(=O)[C@H](CO)NC(=O)CNC(=O)[C@H](CO)NC(=O)CCCC[C@@H]2SC[C@@H]3NC(=O)N[C@@H]32)CSSC[C@@H](C(N)=O)NC(=O)[C@@H]2CCCN2C(=O)CNC(=O)[C@H](CCC(=O)O)NC(=O)[C@H](CC(=O)O)NC(=O)[C@H](CC(=O)O)NC(=O)CNC(=O)[C@H](CC(C)C)NC(=O)[C@H](Cc2c[nH]cn2)NC(=O)[C@H](CC(C)C)NC(=O)CNC(=O)[C@H](Cc2c[nH]cn2)NC1=O [collagelin] | no effect | coincided with the collagen rich lesions | – | – | – |
| did not bind | – | did not bind | did not bind | SGSGCGPQGARGLTGASAGGPC (disulfide 5-22 (inferred)) [reference compound] | – | – | not | little or no uptake | 1.82±0.32 |
